Assay results: US8426345B2, “Method of drug design” (Alchemia Limited, priority 2005, dated 2013)

Target: T1, Human SST5 somatostatin receptor (Homo sapiens, UniProt P35346)
T1 construct: expressed in transfected cells; host or cells: HEK-293 EBNA cells (membranes)
Assay: Filter plate radio-ligand binding assay for SST5 receptor ([125I]SST-14 displacement)
Conditions: 2P library; for % SST5 radio-ligand binding displaced at conc 50: compound conc 50 μM; for % SST5 radio-ligand binding displaced at conc 250: compound conc 250 μM; for % SST5 radio-ligand binding displaced at conc 500: compound conc 500 μM

T1 sequence (P35346 whole entry): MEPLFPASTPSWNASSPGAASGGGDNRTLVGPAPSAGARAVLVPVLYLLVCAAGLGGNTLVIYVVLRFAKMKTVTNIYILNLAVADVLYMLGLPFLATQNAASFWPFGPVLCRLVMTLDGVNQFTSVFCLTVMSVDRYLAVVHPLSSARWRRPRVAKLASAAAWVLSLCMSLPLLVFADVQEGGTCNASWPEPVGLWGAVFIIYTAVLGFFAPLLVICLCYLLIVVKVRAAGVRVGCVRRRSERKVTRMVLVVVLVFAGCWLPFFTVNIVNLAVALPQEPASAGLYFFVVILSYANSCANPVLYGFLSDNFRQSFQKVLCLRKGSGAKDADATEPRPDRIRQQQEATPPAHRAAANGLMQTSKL

SMILES	% SST5 radio-ligand binding displaced at conc 50	% SST5 radio-ligand binding displaced at conc 250	% SST5 radio-ligand binding displaced at conc 500
COC[C@H]1O[C@@H](SC)[C@H](NC(=O)CCN)[C@@H](OCc2ccc(Cl)cc2)[C@@H]1O [Compound 17]	− (% SST5 radio-ligand binding displaced at cone (μM) −<40%)	− (% SST5 radio-ligand binding displaced at cone (μM) −<40%)	− (% SST5 radio-ligand binding displaced at cone (μM) −<40%)
COC[C@H]1O[C@@H](SC)[C@H](NC(=O)CCN)[C@@H](OCc2ccc3ccccc3c2)[C@@H]1O [Compound 18]	− (% SST5 radio-ligand binding displaced at cone (μM) −<40%)	− (% SST5 radio-ligand binding displaced at cone (μM) −<40%)	− (% SST5 radio-ligand binding displaced at cone (μM) −<40%)
COC[C@H]1O[C@H](OCc2ccc(Cl)cc2)[C@H](NC(=O)CCN)[C@@H](OC)[C@@H]1O [Compound 19]	− (% SST5 radio-ligand binding displaced at cone (μM) −<40%)	− (% SST5 radio-ligand binding displaced at cone (μM) −<40%)	++ (% SST5 radio-ligand binding displaced at conc (μM) >60%)
COC[C@H]1O[C@@H](OCc2ccc(Cl)cc2)[C@H](NC(=O)CCN)[C@@H](OC)[C@@H]1O [Compound 20]	− (% SST5 radio-ligand binding displaced at cone (μM) −<40%)	− (% SST5 radio-ligand binding displaced at cone (μM) −<40%)	+ (% SST5 radio-ligand binding displaced at cone (μM) 60>+>40%)
COC[C@H]1O[C@@H](OCc2ccc3ccccc3c2)[C@H](NC(=O)CCN)[C@@H](OC)[C@@H]1O [Compound 21]	− (% SST5 radio-ligand binding displaced at cone (μM) −<40%)	+ (% SST5 radio-ligand binding displaced at cone (μM) 60>+>40%)	++ (% SST5 radio-ligand binding displaced at conc (μM) >60%)
CO[C@H]1[C@H](O)[C@@H](COCc2ccc(Cl)cc2)O[C@@H](SC)[C@@H]1NC(=O)CCCN [Compound 22]	− (% SST5 radio-ligand binding displaced at cone (μM) −<40%)	− (% SST5 radio-ligand binding displaced at cone (μM) −<40%)	− (% SST5 radio-ligand binding displaced at cone (μM) −<40%)
CO[C@H]1[C@H](O)[C@@H](COCc2ccc3ccccc3c2)O[C@@H](SC)[C@@H]1NC(=O)CCCN [Compound 23]	− (% SST5 radio-ligand binding displaced at cone (μM) −<40%)	− (% SST5 radio-ligand binding displaced at cone (μM) −<40%)	+ (% SST5 radio-ligand binding displaced at cone (μM) 60>+>40%)
COC[C@H]1O[C@@H](SC)[C@H](NC(=O)CCCN)[C@@H](OCc2ccc(Cl)cc2)[C@@H]1O [Compound 24]	− (% SST5 radio-ligand binding displaced at cone (μM) −<40%)	− (% SST5 radio-ligand binding displaced at cone (μM) −<40%)	− (% SST5 radio-ligand binding displaced at cone (μM) −<40%)
COC[C@H]1O[C@@H](SC)[C@H](NC(=O)CCCN)[C@@H](OCc2ccc3ccccc3c2)[C@@H]1O [Compound 25]	− (% SST5 radio-ligand binding displaced at cone (μM) −<40%)	− (% SST5 radio-ligand binding displaced at cone (μM) −<40%)	+ (% SST5 radio-ligand binding displaced at cone (μM) 60>+>40%)
COC[C@H]1O[C@@H](OCc2ccc(Cl)cc2)[C@H](NC(=O)CCCN)[C@@H](OC)[C@@H]1O [Compound 27]	− (% SST5 radio-ligand binding displaced at cone (μM) −<40%)	− (% SST5 radio-ligand binding displaced at cone (μM) −<40%)	− (% SST5 radio-ligand binding displaced at cone (μM) −<40%)
COC[C@H]1O[C@@H](OCc2ccc3ccccc3c2)[C@H](NC(=O)CCCN)[C@@H](OC)[C@@H]1O [Compound 28]	− (% SST5 radio-ligand binding displaced at cone (μM) −<40%)	− (% SST5 radio-ligand binding displaced at cone (μM) −<40%)	++ (% SST5 radio-ligand binding displaced at conc (μM) >60%)
COC1C(O)C(COCc2ccc(Cl)cc2)OC(SC)C1NC(=O)CN (stereo not drawn) [Compound 29]	− (% SST5 radio-ligand binding displaced at cone (μM) −<40%)	− (% SST5 radio-ligand binding displaced at cone (μM) −<40%)	− (% SST5 radio-ligand binding displaced at cone (μM) −<40%)
COC1C(O)C(COCc2ccc3ccccc3c2)OC(SC)C1NC(=O)CN (stereo not drawn) [Compound 30]	− (% SST5 radio-ligand binding displaced at cone (μM) −<40%)	− (% SST5 radio-ligand binding displaced at cone (μM) −<40%)	+ (% SST5 radio-ligand binding displaced at cone (μM) 60>+>40%)
COCC1OC(SC)C(NC(=O)CN)C(OCc2ccc(Cl)cc2)C1O (stereo not drawn) [Compound 31]	− (% SST5 radio-ligand binding displaced at cone (μM) −<40%)	− (% SST5 radio-ligand binding displaced at cone (μM) −<40%)	+ (% SST5 radio-ligand binding displaced at cone (μM) 60>+>40%)
COCC1OC(SC)C(NC(=O)CN)C(OCc2ccc3ccccc3c2)C1O (stereo not drawn) [Compound 32]	− (% SST5 radio-ligand binding displaced at cone (μM) −<40%)	− (% SST5 radio-ligand binding displaced at cone (μM) −<40%)	− (% SST5 radio-ligand binding displaced at cone (μM) −<40%)
COC[C@H]1O[C@H](OCc2ccc(Cl)cc2)[C@H](NC(=O)CN)[C@H](OC)[C@@H]1O [Compound 33]	− (% SST5 radio-ligand binding displaced at cone (μM) −<40%)	− (% SST5 radio-ligand binding displaced at cone (μM) −<40%)	− (% SST5 radio-ligand binding displaced at cone (μM) −<40%)
COC[C@H]1O[C@H](OCc2ccc3ccccc3c2)[C@H](NC(=O)CN)[C@H](OC)[C@@H]1O [Compound 34]	− (% SST5 radio-ligand binding displaced at cone (μM) −<40%)	− (% SST5 radio-ligand binding displaced at cone (μM) −<40%)	− (% SST5 radio-ligand binding displaced at cone (μM) −<40%)
COC[C@H]1O[C@@H](OCc2ccc(Cl)cc2)[C@H](NC(=O)CN)[C@H](OC)[C@@H]1O [Compound 35]	− (% SST5 radio-ligand binding displaced at cone (μM) −<40%)	− (% SST5 radio-ligand binding displaced at cone (μM) −<40%)	− (% SST5 radio-ligand binding displaced at cone (μM) −<40%)
COC[C@H]1O[C@@H](OCc2ccc3ccccc3c2)[C@H](NC(=O)CN)[C@H](OC)[C@@H]1O [Compound 36]	− (% SST5 radio-ligand binding displaced at cone (μM) −<40%)	− (% SST5 radio-ligand binding displaced at cone (μM) −<40%)	+ (% SST5 radio-ligand binding displaced at cone (μM) 60>+>40%)
COC[C@H]1O[C@@H](SC)[C@H](NC(=O)CCN)[C@H](OCc2ccc(Cl)cc2)[C@@H]1O [Compound 37]	− (% SST5 radio-ligand binding displaced at cone (μM) −<40%)	− (% SST5 radio-ligand binding displaced at cone (μM) −<40%)	− (% SST5 radio-ligand binding displaced at cone (μM) −<40%)
COC[C@H]1O[C@H](OCc2ccc(Cl)cc2)[C@H](NC(=O)CCN)[C@H](OC)[C@@H]1O [Compound 38]	− (% SST5 radio-ligand binding displaced at cone (μM) −<40%)	+ (% SST5 radio-ligand binding displaced at cone (μM) 60>+>40%)	++ (% SST5 radio-ligand binding displaced at conc (μM) >60%)
COC[C@H]1O[C@@H](OCc2ccc(Cl)cc2)[C@H](NC(=O)CCN)[C@H](OC)[C@@H]1O [Compound 39]	− (% SST5 radio-ligand binding displaced at cone (μM) −<40%)	− (% SST5 radio-ligand binding displaced at cone (μM) −<40%)	++ (% SST5 radio-ligand binding displaced at conc (μM) >60%)
COC[C@H]1O[C@@H](OCc2ccc3ccccc3c2)[C@H](NC(=O)CCN)[C@H](OC)[C@@H]1O [Compound 40]	− (% SST5 radio-ligand binding displaced at cone (μM) −<40%)	++ (% SST5 radio-ligand binding displaced at conc (μM) >60%)	++ (% SST5 radio-ligand binding displaced at conc (μM) >60%)
